Measured values: patent US11957703B2, “Modulating Nudix homology domain (NHD) with nicotinamide mononucleotide analogs and derivatives of same” (President and Fellows of Harvard College, priority 2017, dated 2024)

What was measured:
[1] = molecular target: T1, PARP1-DBC1 complex (Homo sapiens, UniProt Q8N163); assay: PARP1-DBC1 dissociation assay (Flag-DBC1 immunoprecipitates incubated with molecules); assay type: binding
T1 construct: expressed in transfected cells; host or cells: 293T cells stably expressing Flag-DBC1 (retroviral pMSCVpuro-Flag-DBC1)
Procedure: (§1) Protein extracts from 293T or mouse liver tissues were lysed in ice-cold buffer (150 mM NaCl, 1 mM EDTA, 1 mM EGTA, 1% Triton X-100, 0.5% NP-40, 10 mM Tris HCl, pH 7.4) supplemented with protease inhibitors cocktail cOmplete tablets (Roche) and phosphatase inhibitor cocktail 2 and 3 (Sigma). Protein concentrations were determined by the Bradford protein assay (Bio-rad). Flag-M2 agarose beads or anti-V5 agarose affinity gel (Sigma) were mixed with the lysate supernatant. Immunoprecipitation was allowed to proceed for 2 hours up to overnight at 4° C. with gentle rotation. After 4 washes with lysis buffer, proteins were either directly boiled in SDS-PAGE sample buffer or eluted from the agarose beads using 3×FLAG peptides (Sigma).
(§2) Cell lysates or Co-IP samples were run on homemade 10% or 4-20% gradient pre-cast SDS-PAGE gels (Bio-Rad) under reducing conditions, and then transferred to a polyvinylidene difluoride (PVDF) membrane (Millipore). Membranes were blocked with 5% non-fat dry milk in TBS-Tween (10 mM Tris HCl, pH 7.5, 150 mM NaCl, and 0.1% Tween-20). Antibodies were used at the following concentrations: anti-SIRT1 (Santa Cruz, SC-15404) at 1:500, anti-DBC1 (Bethyl Labotatories, A300-434A) at 1:1000, anti-PARP1 (Cell Signaling, #9542L) at 1:1000, anti-γH2AX (Abcam, ab2893) at 1:1000, anti-H2AX (Abcam, ab11175) at 1:1000, anti-NMNAT1 (Abcam, ab45548) at 1:1000, anti-GAPDH (Millipore, MAB374) at 1:3000, anti-V5 (Invitrogen, R960-25) at 1:3000, anti-beta-tubulin (Upstate, 05-661) at 1:1000, anti-α-actin (Millipore, MAB1501R) at 1:2000, anti-Flag (Sigma, F7425) at 1:3000, anti-PARG (Abcam, ab16060) at 1:1000, p53 (Calbiochem, OP43) at 1:1000, RAD51 (Calbiochem, PC130) at 1:1000, p21 (Neomarker-Labvision-Thermal Fisher, RB-032-P1) at 1:1000, SIRT6 (Cell signaling, D8D12) at 1:1000, Streptavidin-HRP at 1:1000 (Trevigen #4800-30-06), anti-PAR (Trevigen, #4335-MC-100; Abcam, ab14459) at 1:1000 and anti-PARP2 (Santa Cruz, SC-393310) at 1:200 overnight at 4° C. The antibodies ATM, ATR, BRCA1, Chk1, Chk2, DNA-PKs and XRCC1 were all from the Bethyl Laboratories. Phospho-Chk1, phospho-Chk2 and phosphor-p53 antibodies were from a DNA Damage Antibody Sampler Kit (Cell Signaling #9947). Secondary antibodies were horseradish peroxidase-coupled sheep anti-mouse IgG (GE Healthcare, UK), donkey anti-rabbit IgG (GE Healthcare, UK). Amersham™ ECL and Amersham Select ECL western blotting detection systems (GE Healthcare, UK) were used to develop signals. Quantifications of images from western blot films were performed using ImageJ (National Institutes of Health, Bethesda, MD).
Equal aliquots of 293T cell lysates with over-expressing Flag-DBC1 were immunoprecipitated using Flag-M2 agarose beads as described above. After four brief washes with lysis buffer, the beads aliquots were incubated with the freshly dissolved NAD^+ or other chemicals for 1 hr at 4° C. with gentle rotation then centrifuged (5000 rpm, 5 min). After completely removing supernatant, the beads were boiled in SDS loading buffer, analyzed by SDS-PAGE, and probed with antibodies.

[2] = test system: PARP1-DBC1 interaction; assay: PARP1-DBC1 interaction in treated 293T cells (co-immunoprecipitation); assay type: cell-based, human; conditions: for effect on the PARP1-DBC1 interaction in 293T cells: PJ34 or 3-AB (2 mM) for 24 hrs
Procedure: 293T, MCF-7, DBC1 wild type and knockout MEFs (a gift from Dr. Eduardo N. Chini from Mayo Clinic) were cultured in Dulbecco's modified Eagle's medium (DMEM, Mediatech, Inc., Herndon, VA) supplemented with 10% fetal bovine serum (Gemini Bio-products, Woodland, CA) with the presence of penicillin and streptomycin (Corning, Manassas, VA). Retroviruses expressing wild-type or mutant Flag-DBC1 proteins were produced by transfecting 293T cells with plasmids encoding VSV-G, Gag-Pol, and pMSCVpuro-Flag-DBC1 constructs using Lipofectamine® 2000 according to the manufacturer's instructions. Media was changed the day after transfection, and virus-containing media was harvested between 48 and 72 hours post-transfection and filtered through a […] (Corning, Manassas, VA). The filtered media was incubated with the target cells in the presence of 5 μg/mL polybrene (Sigma) and selection started using puromycin (2 μg/mL) 48 hrs post-infection. Lentivirus for knocking down DBC1 or SIRT1 was produced by transfecting 293T with psPAX2 (Addgene plasmid #12260), pMD2.G (Addgene plasmid #12259) and shRNA constructs using Lipofectamine® 2000. The virus harvest, infection and selection were same as described for retrovirus production. The transfections of siRNA were performed using Lipofectamine® RNAiMAX, according to the manufacturer's instructions.
as §1
(§3) Cell lysates or Co-IP samples were run on homemade 10% or 4-20% gradient pre-cast SDS-PAGE gels (Bio-Rad) under reducing conditions, and then transferred to a polyvinylidene difluoride (PVDF) membrane (Millipore). Membranes were blocked with 5% non-fat dry milk in TBS-Tween (10 mM Tris HCl, pH 7.5, 150 mM NaCl, and 0.1% Tween-20). […] Quantifications of images from western blot films were performed using ImageJ (National Institutes of Health, Bethesda, MD).

[3] = test system: p53 and RAD51 pulled down with Flag-DBC1; assay: Interaction of DNA repair proteins with Flag-DBC1 in 293T cells; assay type: cell-based, human; conditions: 0.5 mM, 24 hrs
Procedure: as §1, §3

[4] = molecular target: T2, DBC1WT (Homo sapiens, UniProt Q8N163); assay: Biotin-NAD+ binding assay, DBC1 wild type; conditions: unlabeled competitor
T2 construct: expressed in transfected cells; host or cells: 293T cells
Procedure: Lysates of 293T cells expressing Flag-DBC1 or V5/his-DBC1 were prepared as described above and bound to an anti-Flag high sensitivity M2 coated 96-well plate (Sigma) or His-Select® high sensitivity nickel coated 96-well plate (Sigma) by incubating for 3-4 hrs at 4° C., then washed three times with lysis buffer. Biotin-NAD^+ (Trevigen), or specified molecules were incubated in the plates overnight at 4° C. After washing twice with PBS (pH 7.4) and twice with PBS-T (0.1% Triton X-100), streptavidin-HRP (Trevigen, 1:500) in PBS-T was added to each well and incubated for 1 hr at room temperature. After washing twice with PBS (pH 7.4) and twice with PBS-T, 100 μl of PeroxyGlow™ A and B chemiluminescent substrates (Trevigen) mixture (1:1) was added into each well for 1 min followed by immediate quantification of chemiluminescence on a EnSpire 2300 Multi-label reader (Perkin Elmer). Binding curves were calculated using the “one site, specific binding” formula of GraphPad.

[5] = test system: PAR; assay: PAR induced by paraquat in 293T cells (western blot); assay type: cell-based, human; conditions: 3-AB 2 mM, paraquat 0.5 mM
Procedure: as §2, with “The antibodies ATM, ATR, BRCA1, Chk1, Chk2, DNA-PKs and XRCC1 were all from the Bethyl Laboratories. Phospho-Chk1, phospho-Chk2 and phosphor-p53 antibodies were from a DNA Damage Antibody Sampler Kit (Cell Signaling #9947). Secondary antibodies were horseradish peroxidase-coupled sheep anti-mouse IgG (GE Healthcare, UK), donkey anti-rabbit IgG (GE Healthcare, UK). Amersham™ ECL and Amersham Select ECL western blotting detection systems (GE Healthcare, UK) were used to develop signals.” left out

[6] = test system: SIRT1-DBC1 interaction; assay: SIRT1-DBC1 interaction in treated 293T cells; assay type: cell-based, human; conditions: FK866 (5 nM, 24 hrs)
Procedure: 293T, MCF-7, DBC1 wild type and knockout MEFs (a gift from Dr. Eduardo N. Chini from Mayo Clinic) were cultured in Dulbecco's modified Eagle's medium (DMEM, Mediatech, Inc., Herndon, VA) supplemented with 10% fetal bovine serum (Gemini Bio-products, Woodland, CA) with the presence of penicillin and streptomycin (Corning, Manassas, VA). Retroviruses expressing wild-type or mutant Flag-DBC1 proteins were produced by transfecting 293T cells with plasmids encoding VSV-G, Gag-Pol, and pMSCVpuro-Flag-DBC1 constructs using Lipofectamine® 2000 according to the manufacturer's instructions. […]
Protein extracts from 293T or mouse liver tissues were lysed in ice-cold buffer (150 mM NaCl, 1 mM EDTA, 1 mM EGTA, 1% Triton X-100, 0.5% NP-40, 10 mM Tris HCl, pH 7.4) supplemented with protease inhibitors cocktail cOmplete tablets (Roche) and phosphatase inhibitor cocktail 2 and 3 (Sigma). Protein concentrations were determined by the Bradford protein assay (Bio-rad). […]
as §3, with “(Millipore).” for “(Millipore). Membranes were blocked with 5% non-fat dry milk in TBS-Tween (10 mM Tris HCl, pH 7.5, 150 mM NaCl, and 0.1% Tween-20).”

[7] = test system: cellular NAD^+ levels; assay: NAD+ quantification in 293T cells; assay type: cell-based, human; conditions: treatment of 293T cells
Procedure: NAD^+ quantification was conducted with an NAD/NADH Quantification Kit (Biovision, Milpitas, CA) following the manufacturer's instructions and normalized to soluble protein content.

T1 sequence (Q8N163 whole entry, one chain of several): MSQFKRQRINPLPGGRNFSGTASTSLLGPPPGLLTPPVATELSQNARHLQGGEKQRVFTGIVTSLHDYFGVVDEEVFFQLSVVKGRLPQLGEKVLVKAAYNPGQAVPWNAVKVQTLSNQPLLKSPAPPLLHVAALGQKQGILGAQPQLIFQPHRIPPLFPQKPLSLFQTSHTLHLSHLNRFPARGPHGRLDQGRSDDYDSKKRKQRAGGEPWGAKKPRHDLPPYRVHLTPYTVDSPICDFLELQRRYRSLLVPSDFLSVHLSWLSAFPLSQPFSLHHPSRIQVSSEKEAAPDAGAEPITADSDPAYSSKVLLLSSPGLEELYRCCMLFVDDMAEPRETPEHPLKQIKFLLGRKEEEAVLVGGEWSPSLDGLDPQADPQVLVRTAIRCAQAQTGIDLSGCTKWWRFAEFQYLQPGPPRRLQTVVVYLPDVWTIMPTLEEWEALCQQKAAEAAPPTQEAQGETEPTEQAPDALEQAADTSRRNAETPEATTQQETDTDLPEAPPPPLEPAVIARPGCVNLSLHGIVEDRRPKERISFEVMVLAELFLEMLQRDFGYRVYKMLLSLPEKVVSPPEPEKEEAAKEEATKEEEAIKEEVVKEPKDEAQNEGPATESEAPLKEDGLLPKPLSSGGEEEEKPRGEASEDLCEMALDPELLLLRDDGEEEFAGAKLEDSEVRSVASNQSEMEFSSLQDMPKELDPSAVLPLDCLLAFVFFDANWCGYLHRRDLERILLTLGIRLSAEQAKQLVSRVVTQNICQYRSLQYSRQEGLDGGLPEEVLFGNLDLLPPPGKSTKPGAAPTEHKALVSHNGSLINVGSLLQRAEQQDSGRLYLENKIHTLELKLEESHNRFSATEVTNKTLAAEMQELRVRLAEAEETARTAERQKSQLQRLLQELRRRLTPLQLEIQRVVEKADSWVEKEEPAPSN
T2 sequence (Q8N163 whole entry): as the sequence (Q8N163 whole entry, one chain of several) above

## NC(=O)c1ccc[n+]([C@@H]2C[C@H](COP(=O)(O)OP(=O)(O)OC[C@H]3O[C@@H](n4cnc5c(N)ncnc54)[C@H](O)[C@@H]3O)[C@@H](O)[C@H]2O)c1 [Carba-NAD, Carbanicotinamide adenine dinucleotide]
[1]; non-hydrolysable NAD^+ analogue, concentration not given
  effect on the PARP1-DBC1 complex: abrogated

## Nc1ncnc2c1ncn2[C@@H]1O[C@H](COP(=O)(O)OP(=O)(O)OC[C@H]2OC(O)[C@H](O)[C@@H]2O)[C@@H](O)[C@H]1O (stereo partly drawn) [ADPr, ADP-ribose]
[1]; 200 μM, 1 hr
  effect on the PARP1-DBC1 complex: no effect

## Nc1ncnc2c1ncn2[C@@H]1O[C@H](CO)[C@@H](O)[C@H]1O [adenosine]
[1]; 200 μM, 1 hr
  effect on the PARP1-DBC1 complex: no effect

## NC(=O)C1=CN([C@@H]2O[C@H](COP(=O)(O)OP(=O)(O)OC[C@H]3O[C@@H](n4cnc5c(N)ncnc54)[C@H](O)[C@@H]3O)[C@@H](O)[C@H]2O)C=CC1 [NADH]
[1]; 200 μM, 1 hr
  effect on the PARP1-DBC1 complex: less effective than NAD^+

## CN(C)CC(=O)Nc1ccc2[nH]c(=O)c3ccccc3c2c1 [PJ-34]
[2]
  effect on the PARP1-DBC1 interaction in 293T cells: no effect

## C[n+]1ccc(-c2cc[n+](C)cc2)cc1 [paraquat]
[3]
  interaction of p53 and RAD51 with Flag-DBC1: did not change

## NC(=O)c1ccc[n+]([C@@H]2O[C@H](COP(=O)([O-])OP(=O)(O)OC[C@H]3O[C@@H](n4cnc5c(N)ncnc54)[C@H](O)[C@@H]3O)[C@@H](O)[C@H]2O)c1 [unlabeled NAD^+]
[4]
  competition of labeled NAD^+ bound to DBC1: competed off

## NC(=O)c1cccnc1 [NAM, Nicotinamide]
[1]; 500 μM, 1 hr
  effect on the PARP1-DBC1 complex: no effect

## NC(=O)c1cccc(N)c1 [3-AB, 3-aminobenzamide]
[2]
  effect on the PARP1-DBC1 interaction in 293T cells: no effect
[1]; 2 mM, 1 hr
  effect on the PARP1-DBC1 complex: no effect
[5]
  PAR induced by paraquat: inhibitory effect

## Nc1ncnc2nc[nH]c12 [adenine]
[1]; 200 μM, 1 hr
  effect on the PARP1-DBC1 complex: less effective than NAD^+

## O=C(/C=C/c1cccnc1)NCCCCC1CCN(C(=O)c2ccccc2)CC1 [FK866]
[6]
  SIRT1-DBC1 interaction in cells: slightly diminished
[2]; FK866, 24 hrs
  PARP1-DBC1 interaction in HEK293T cells: increased

## NC(=O)c1ccc[n+]([C@@H]2O[C@H](CO)[C@@H](O)[C@H]2O)c1 [NR, Nicotinamide Riboside]
[7]
  cellular NAD^+ levels: raises
[2]; treatment of 293T cells with NR
  PARP1-DBC1 complex in 293T cells: dissociates
[1]; 200 μM, 1 hr
  effect on the PARP1-DBC1 complex: no effect

## Nc1ncnc2c1ncn2[C@@H]1O[C@H](COP(=O)(O)OP(=O)(O)OP(=O)(O)O)[C@@H](O)[C@H]1O [ATP, adenosine triphosphate]
[1]; 200 μM, 1 hr
  effect on the PARP1-DBC1 complex: no effect
